Here are results for 15 compounds from PubChem BioAssay (NCI).

What all share (test): NCI-60 cell line screen, 48 h
For assay [1], the system named is ACHN renal.
Assay [2] has as its system A498 renal.
Assay [3] relates to UACC-257 melanoma.
The test system of assay [4] is HT29 colon.
Assay [5] has as its system HS 578T breast.
Assay [6] has as its system SK-MEL-5 melanoma.
The test system of assay [7] is NCI-H226 lung.
Assay [8] concerns CAKI-1 renal.
For assay [9], the system named is OVCAR-5 ovarian.
The subject of assay [10] is SF-295 CNS.

SMILES strings stand for the structures.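 All cell lines were grown in 96-well plates and treated with compound for 48 hours. Definition used: TGI = concentration required for complete inhibition of growth.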

As to `CC(C)(C)C1CCC2c3c([nH]c4ccccc34)C3C(=O)N(c4cc(Br)cc(Br)c4)C(=O)C3C2C1` (stereo unspecified), the TGI in [1] was more than 100 µM; in assay [2], 68.4 µM; in [3], more than 100 µM; in assay [4], more than 100 µM; in assay [5], 30.8 µM; in [6] it was more than 100 µM. The values for the TGI in [7], in assay [8] and in [9] were 75.6 µM, 66.6 µM and more than 100 µM, respectively.
In the case of `O=[N+]([O-])/C(C(Cl)=C(Cl)Cl)=C1\Nc2ccccc2O1`, the TGI in assay [1], in assay [2], in assay [3], in [4], in [5] and in [10] was more than 100 µM throughout. Further, the TGI is more than 100 µM in assay [6], 59.7 µM in [7], more than 100 µM in [8] and more than 100 µM in [9].
With `Cc1c2c(n3c(nc4ccccc43)c1C#N)N(c1ccc(Cl)cc1)CC2`, the TGI in assay [1], in assay [2], in [3], in assay [4], in assay [5] and in assay [10] was more than 100 µM throughout. In addition, the TGI in assay [6], in [7], in assay [8] and in [9] was more than 100 µM throughout.
Take `Cc1cc(Br)c(N2C3=C(CC4=C2CCCC4=O)C(=O)CCC3)c(Br)c1`: the TGI in assay [1], in assay [2], in assay [4], in [5], in assay [6] and in assay [7] was more than 100 µM in each case. Also, the TGI in assay [8] and in assay [9] was more than 100 µM throughout.
Take `COC(=O)OC[C@H]1O[C@@H](n2cc(C)c(=O)[nH]c2=O)CC1OC(=O)OC` (stereo partly specified): the TGI in [1], in assay [2], in assay [4], in assay [5], in [10] and in assay [6] was more than 100 µM each time. Besides, the TGI in assay [7] and in [9] was more than 100 µM in each case.
As to `CC(C)CN1CN(c2ccccc2)C2(CCN(CC(C)(c3ccc(F)cc3)C3OCCO3)CC2)C1=O` (stereo unspecified), the TGI in assay [1] was 15 µM; in assay [3], 10.8 µM; in [4], 5.94 µM; in [5], 16.8 µM; in assay [10], 10.9 µM; in [6] it was 4.95 µM. Further, the TGI in assay [7] worked out at 29.1 µM; in assay [8], 24.4 µM; in [9], 25.7 µM.
Regarding `Oc1ccc(-c2cc(-c3c(O)cc(O)cc3O)on2)cc1`, the TGI in assay [1], in [3], in [4], in assay [5], in assay [10] and in assay [6] was more than 100 µM each time. In addition, the TGI in [7], in assay [8] and in assay [9] was more than 100 µM in each case.
`CSc1n[nH]c(N)c1C(=O)Nc1ccc(Cl)cc1`: the TGI in assay [2] was more than 100 µM; in assay [3], more than 100 µM; in [4], more than 100 µM; in assay [5], more than 100 µM; in assay [6], more than 100 µM; in assay [7] it was 76.5 µM. Further, the TGI in [8] and in assay [9] was more than 100 µM throughout.
Turning to `COc1c(C2(c3ccc(F)cc3)SCCCS2)c(=O)c1=O`, the TGI in assay [1], in [3], in [4], in [5], in assay [10] and in [6] was more than 100 µM throughout. Besides, the TGI in assay [7], in assay [8] and in [9] was more than 100 µM throughout.
Consider `CC1C(c2ccc(N(C)C)cc2)c2cc3c(cc2OC1N1CCCC1)OCO3` (stereo unspecified), for which the TGI was more than 100 µM in assay [1]; 72.3 µM in assay [2]; more than 100 µM in assay [3]; more than 81.9 µM in assay [4]; 78 µM in assay [5]; more than 94.8 µM in assay [10]. Besides, the TGI in assay [6], in assay [8] and in assay [9] was more than 100 µM each time.
Consider `CCOC(=O)CC(C)C(C#N)(OP1(=O)OC(c2ccccc2)C(C)N1C)c1ccccc1` (stereo unspecified), for which the TGI in assay [1], in [2], in [3], in assay [4], in assay [5] and in assay [10] was more than 100 µM in each case. Moreover, the TGI in assay [6], in [8] and in assay [9] was more than 100 µM throughout.
In the case of `COc1c2cc(C(C)(C)C)cc1CSCc1cc(C(C)(C)C)cc(c1OC)CCCCC2`, the TGI is more than 50 µM in assay [1]; more than 50 µM in [2]; 49.1 µM in [3]; more than 50 µM in assay [4]; more than 50 µM in assay [5]; more than 50 µM in [10]. The TGI in assay [6], in assay [7] and in assay [9] was more than 50 µM throughout.
In the case of `Nc1c(Br)cc(-c2cc(Br)c(N)c(Br)c2)cc1Br`, the TGI in [1], in [3], in assay [4], in assay [5], in assay [10] and in assay [6] was more than 100 µM each time. In addition, the TGI in [7], in assay [8] and in assay [9] was more than 100 µM in each case.
Consider `COc1ccc(-n2c(CCCC(=O)O)nc3c2C(=O)c2ccccc2C3=O)cc1`, for which the TGI in [1], in assay [2], in [3], in [5], in assay [10] and in [8] was more than 100 µM each time. For the same compound, the TGI in assay [9] is more than 100 µM.
With `Cc1c(C)c(C)c(-n2c(=O)n(C)c(=O)n2C(C)(C)C)c(C)c1C`, the TGI in [1], in assay [2], in assay [3], in assay [5], in assay [10] and in [6] was more than 100 µM each time. For the same compound, the TGI in assay [8] and in assay [9] was more than 100 µM each time.
